# Measured values as given in US7989462B2, “4-arylamin-or-4-heteroarylamino-quinazolines and analogs as activators of caspases and inducers of apoptosis and the use thereof” (Myrexis, Inc., priority 2003, dated 2011).
# Tested on: T-47D
# Assay: Caspase cascade activation in T-47D solid tumor cells (fluorogenic N-(Ac-DEVD)-N'-ethoxycarbonyl-R110 substrate)
# Format: cell-based, Human
# Settings: T-47D (24 hr); for EC50: Homo sapiens, T47D, read-out: Caspase Potency EC50; for Caspase Activity Ratio: ratio of net RFU of test compound to that of control samples
# Description: Human breast cancer cell lines T-47D and DLD-1 were grown according to media component mixtures designated by American Type Culture Collection+10% FCS (Invitrogen Corporation), in a 5% CO2-95% humidity incubator at 37° C. T-47D and DLD-1 cells were maintained at a cell density between 50 and 80% confluency at a cell density of 0.1 to 0.6×10^6 cells/mL. Cells were harvested at 600×g and resuspended at 0.65×10^6 cells/mL into appropriate media+10% FCS. An aliquot of 22.5 μL of cells was added to a well of a 384-well microtiter plate containing 2.5 μL of a 10% DMSO in RPMI-1640 media solution containing 0.16 to 100 μM of (2-chloro-quinazolin-4-yl)-(4-dimethylaminophenyl)-methylamine or other test compound (0.016 to 10 μM final). An aliquot of 22.5 μL of cells was added to a well of a 384-well microtiter plate containing 2.5 μL of a 10% DMSO in RPMI-1640 media solution without test compound as the control sample. […] After incubation, the samples were removed from the incubator and 25 μL of a solution containing 14 μM of N-(Ac-DEVD)-N′-ethoxycarbonyl-R110 fluorogenic substrate (Cytovia, Inc.; WO99/18856), 20% sucrose (Sigma), 20 mM DTT (Sigma), 200 mM NaCl (Sigma), 40 mM Na PIPES buffer pH 7.2 (Sigma), and 500 μg/mL lysolecithin (Calbiochem) was added. The samples were mixed by agitation and incubated at room temperature. Using a fluorescent plate reader (Model SPECTRAfluor Plus, Tecan), an initial reading (T=0) was made approximately 1-2 min after addition of the substrate solution, employing excitation at 485 nm and emission at 530 nm, to determine the background fluorescence of the control sample. After the 3 h incubation, the samples were read for fluorescence as above (T=3 h).
# The Relative Fluorescence Unit values (RFU) were used to calculate the sample readings as follows: RFU(T=3h)−Control RFU(T=0)=Net RFU(T=3h)
# The activity of caspase cascade activation was determined by the ratio of the net RFU value for (2-chloro-quinazolin-4-yl)-(4-dimethylaminophenyl)-methylamine or other test compounds to that of control samples. The EC50 (nM) was determined by a sigmoidal dose-response calculation (Prism 3.0, GraphPad Software Inc.).
Structure (SMILES),EC50,Caspase Activity Ratio
"COc1ccc(N(C)c2nc(C)nc3ccc(NC(C)=O)cc23)cc1 [Example 31, (6-Acetamido-2-methyl-quinazolin-4-yl)-(4-methoxy-phenyl)-methylamine]",796 nM,3.2
"Cc1nc(N(C)c2ccc3c(c2)nnn3C)c2ccccc2n1 [Example 23, (1-Methyl-1H-benzotriazol-5-yl)-(2-methyl-quinazolin-4-yl)-methylamine]",> 10000 nM,1.1
"COC(=O)N(C)c1ccc(N(C)c2nc(C)nc3ccccc23)cc1 [Example 8, (2-Methyl-quinazolin-4-yl)-[4-(N-methyl-methoxycarbonylamino)-phenyl]-methylamine]",558 nM,8.0
"COc1ccc(Nc2nc(C)nc3ccccc23)cc1OC [Example 24, (3,4-Dimethoxy-phenyl)-(2-methyl-quinazolin-4-yl)-amine]",> 10000 nM,1.3

# Stronger by EC50, values ahead:
EC50,Structure (SMILES),Caspase Activity Ratio
4 nM,"CSc1ccc(N(C)c2nc(C)nc3ccccc23)cc1 [Example 21, (4-Methylthio-phenyl)-(2-methyl-quinazolin-4-yl)-methylamine]",7.5
382 nM,"COc1ccc(N(C)c2nc(C)nc3ccc(N(C)C)cc23)cc1 [Example 30, (6-Dimethylamino-2-methyl-quinazolin-4-yl)-(4-methoxy-phenyl)-methylamine]",6.4
290 nM,"COc1ccc(N(C)c2nc(C)nc3ccc(N(C)C(C)=O)cc23)cc1 [Example 40, (6-N-methyl-acetamido-2-methyl-quinazolin-4-yl)-(4-methoxy-phenyl)-methylamine]",2.7
18 nM,"CNc1ccc(N(C)c2nc(C)nc3ccccc23)cc1 [Example 7, (2-Methyl-quinazolin-4-yl)-(4-methylamino-phenyl)-methylamine]",3.4
